We go through four compounds from US11806359B2 (priority 2020, dated 2023).

The subject of test [1] is adenovirus. Briefly: Antiviral activity against adenovirus. The class given is cell-based.
In test [2] the test system is SARS-CoV-2. The class given is cell-based. Particulars: FIG. 32.
Test [3] deals with HSV-2. Particulars: cited from earlier work.
The test system of test [4] is HIV-1. Conditions: cited from earlier work.
The subject of test [5] is ENTV EV71. Particulars: cited from earlier work.
Test [6] deals with HEP B. Particulars: cited from earlier work.
The subject of test [7] is HSV-1. Conditions: cited from earlier work.
The subject of test [8] is HCV H strain NS5B. Particulars: cited from earlier work.
In test [9] the test system is ADV-11. Particulars: cited from earlier work.
The subject of test [10] is ADV-3. Particulars: cited from earlier work.
Test [11] concerns HEP C. Conditions: cited from earlier work.
Test [12] relates to ENTV CVB1. Conditions: cited from earlier work.
For test [13], the system named is ADV-8. Conditions: cited from earlier work.
Test [14] deals with Dengue virus. Particulars: Cheung et al. 2014; cited from earlier work.

With `C[C@H]1O[C@@H](O[C@H]2[C@@H](O)C[C@H](O[C@H]3[C@@H](O)C[C@H](O[C@H]4CC[C@@]5(C)[C@H](CC[C@@H]6[C@@H]5C[C@@H](O)[C@]5(C)[C@@H](C7=CC(=O)OC7)CC[C@]65O)C4)O[C@@H]3C)O[C@@H]2C)C[C@H](O)[C@@H]1O` [digoxin, reference compound], the activity against adenovirus result in test [1] is “inactive”. Besides, the “inhibition of viral replication” value in test [2] is “efficacy of digoxin against the virus”.
As to `C[C@H]1[C@H](C)CC[C@]2(C(=O)O)CC[C@]3(C)C(=CC[C@@H]4[C@@]5(C)CC[C@H](O)C(C)(C)[C@@H]5CC[C@]43C)[C@H]12` [Ursolic acid], in [3], the “anti-viral activity against HSV-2” value is listed as “some anti-viral activity”. In addition, the “anti-viral activity against HIV-1” value in [4] is given as “some anti-viral activity”. In addition, the “anti-viral activity against ENTV EV71” value in test [5] is “some anti-viral activity”. Also, the “anti-viral activity against HEP B” value in test [6] is listed as “some anti-viral activity”. In test [7], the “anti-viral activity against HSV-1” value is recorded as “some anti-viral activity”. The “anti-viral activity against HCV H strain NS5B” value in [8] is “some anti-viral activity”. Also, in test [9], the “anti-viral activity against ADV-11” value was “some anti-viral activity”. In [10], the “anti-viral activity against ADV-3” value was “some anti-viral activity”. Further, in test [11], the “anti-viral activity against HEP C” value is on record as “some anti-viral activity”. Further, the “anti-viral activity against ENTV CVB1” value in [12] is on record as “some anti-viral activity”. For the same compound, the “anti-viral activity against ADV-8” value in [13] is listed as “some anti-viral activity”.
Regarding `CC1(C)CC[C@]2(C(=O)O)CC[C@]3(C)C(=CC[C@@H]4[C@@]5(C)CC[C@H](O)C(C)(C)[C@@H]5CC[C@]43C)[C@@H]2C1` [Oleanolic acid], the “anti-viral activity against HIV-1” value in test [4] is listed as “some anti-viral activity”. Further, the “anti-viral activity against HCV H strain NS5B” value in [8] was “some anti-viral activity”. Besides, the “anti-viral activity against HEP C” value in [11] is “some anti-viral activity”.
For `CC(=O)O[C@H]1C[C@H](O[C@H]2[C@@H](O)C[C@H](O[C@H]3[C@@H](O)C[C@H](O[C@H]4CC[C@@]5(C)[C@H](CC[C@@H]6[C@@H]5C[C@@H](O)[C@]5(C)[C@@H](C7=CC(=O)OC7)CC[C@]65O)C4)O[C@@H]3C)O[C@@H]2C)O[C@H](C)[C@H]1O[C@@H]1O[C@H](CO)[C@@H](O)[C@H](O)[C@H]1O` [lanatoside C], the “antiviral activity against Dengue virus” value in test [14] is “demonstrates antiviral activity against Dengue virus”.
